Laboratory results published in the NIST ThermoML archive (doi:10.1021/acs.jced.7b01053).
± gives the expanded uncertainty stated by the source.

Test: mn = molality of the nth substance listed, in mol/kg
Settings: 293 K, 100 kPa, Liquid, Alternating current cell with electrodes

CCCCC(=O)[O-].[NH3+]CCO [2-hydroxy ethylammonium pentanoate] + O
Settings	electrical conductivity [S/m]
m1 = 0.01913	0.108 ± 0.011
m1 = 0.01918	0.068 ± 0.014
m1 = 0.03718	0.19 ± 0.015
m1 = 0.03781	0.126 ± 0.013
m1 = 0.05621	0.26 ± 0.019
m1 = 0.05801	0.176 ± 0.014
m1 = 0.07457	0.309 ± 0.047
m1 = 0.07759	0.244 ± 0.046
m1 = 0.09498	0.365 ± 0.04
m1 = 0.09926	0.296 ± 0.02
m1 = 0.1135	0.412 ± 0.029
m1 = 0.1187	0.344 ± 0.024
m1 = 0.1336	0.48 ± 0.035
m1 = 0.1402	0.393 ± 0.028
m1 = 0.152	0.526 ± 0.039
m1 = 0.1594	0.439 ± 0.031
m1 = 0.1718	0.578 ± 0.044
m1 = 0.1796	0.483 ± 0.035
m1 = 0.1899	0.625 ± 0.049
m1 = 0.1981	0.523 ± 0.039
m1 = 0.2067	0.661 ± 0.055
m1 = 0.2174	0.664 ± 0.053
m1 = 0.224	0.701 ± 0.058
m1 = 0.2348	0.597 ± 0.046
m1 = 0.24	0.739 ± 0.062
m1 = 0.2529	0.637 ± 0.05
m1 = 0.2565	0.776 ± 0.066
m1 = 0.2697	0.669 ± 0.13
m1 = 0.272	0.809 ± 0.14
m1 = 0.2867	0.704 ± 0.058
m1 = 0.2875	0.844 ± 0.074
m1 = 0.302	0.875 ± 0.078
m1 = 0.3024	0.734 ± 0.061
m1 = 0.3165	0.904 ± 0.083
m1 = 0.3181	0.759 ± 0.065
m1 = 0.3299	0.93 ± 0.13
m1 = 0.3329	0.786 ± 0.068
m1 = 0.3434	0.957 ± 0.09
m1 = 0.3474	0.812 ± 0.071
m1 = 0.3561	0.983 ± 0.093
m1 = 0.3608	0.832 ± 0.073
m1 = 0.3685	1.01 ± 0.097
m1 = 0.3744	0.855 ± 0.076
m1 = 0.38	1.03 ± 0.1
m1 = 0.3866	0.876 ± 0.078
m1 = 0.3914	1.05 ± 0.1
m1 = 0.3988	0.895 ± 0.081
m1 = 0.402	1.07 ± 0.11
m1 = 0.4101	0.917 ± 0.084
m1 = 0.4126	1.09 ± 0.11
m1 = 0.4215	0.925 ± 0.085
m1 = 0.4221	1.11 ± 0.11
m1 = 0.4316	1.13 ± 0.11
m1 = 0.4318	0.94 ± 0.087
m1 = 0.4404	1.14 ± 0.12
m1 = 0.4421	0.957 ± 0.089
m1 = 0.4517	0.971 ± 0.091

CCCCC(=O)[O-].C[NH2+]CCO [2-hydroxy-N-methylethanaminium pentanoate] + O
Settings	electrical conductivity [S/m]
m1 = 0.01138	0.049 ± 0.01
m1 = 0.01396	0.062 ± 0.011
m1 = 0.02431	0.098 ± 0.009
m1 = 0.02742	0.113 ± 0.009
m1 = 0.03923	0.149 ± 0.014
m1 = 0.0421	0.165 ± 0.011
m1 = 0.05224	0.191 ± 0.013
m1 = 0.05579	0.209 ± 0.023
m1 = 0.0607	0.269 ± 0.017
m1 = 0.06705	0.238 ± 0.015
m1 = 0.08075	0.293 ± 0.023
m1 = 0.08328	0.31 ± 0.024
m1 = 0.09553	0.335 ± 0.022
m1 = 0.09605	0.33 ± 0.022
m1 = 0.1092	0.375 ± 0.027
m1 = 0.1095	0.408 ± 0.029
m1 = 0.1224	0.445 ± 0.032
m1 = 0.124	0.416 ± 0.029
m1 = 0.1358	0.479 ± 0.035
m1 = 0.1372	0.449 ± 0.032
m1 = 0.1484	0.513 ± 0.046
m1 = 0.1505	0.485 ± 0.043
m1 = 0.1608	0.544 ± 0.055
m1 = 0.1632	0.498 ± 0.037
m1 = 0.1727	0.572 ± 0.044
m1 = 0.1759	0.527 ± 0.039
m1 = 0.1844	0.597 ± 0.046
m1 = 0.1879	0.551 ± 0.042
m1 = 0.1947	0.612 ± 0.048
m1 = 0.1999	0.578 ± 0.044
m1 = 0.2059	0.635 ± 0.05
m1 = 0.2113	0.602 ± 0.047
m1 = 0.2164	0.656 ± 0.052
m1 = 0.2226	0.62 ± 0.048
m1 = 0.226	0.677 ± 0.055
m1 = 0.2329	0.642 ± 0.051
m1 = 0.2359	0.697 ± 0.057
m1 = 0.2427	0.663 ± 0.053
m1 = 0.2451	0.709 ± 0.058
m1 = 0.2523	0.682 ± 0.055
m1 = 0.2541	0.727 ± 0.06
m1 = 0.262	0.701 ± 0.057
m1 = 0.2625	0.744 ± 0.062
m1 = 0.2703	0.76 ± 0.064
m1 = 0.2709	0.717 ± 0.059
m1 = 0.2783	0.776 ± 0.067
m1 = 0.2797	0.735 ± 0.062
m1 = 0.2853	0.79 ± 0.068
m1 = 0.2882	0.75 ± 0.063
m1 = 0.2929	0.804 ± 0.069
m1 = 0.2964	0.766 ± 0.065
m1 = 0.2998	0.818 ± 0.071
m1 = 0.304	0.781 ± 0.067
m1 = 0.3065	0.83 ± 0.073
m1 = 0.3114	0.794 ± 0.068
m1 = 0.3129	0.842 ± 0.074
m1 = 0.3184	0.808 ± 0.07
m1 = 0.3191	0.853 ± 0.076
m1 = 0.3249	0.868 ± 0.077
m1 = 0.3255	0.819 ± 0.071
m1 = 0.3307	0.88 ± 0.08
m1 = 0.3317	0.834 ± 0.074
m1 = 0.336	0.893 ± 0.091
m1 = 0.3378	0.847 ± 0.084
m1 = 0.3413	1.04 ± 0.1
m1 = 0.3437	0.858 ± 0.083
m1 = 0.3493	0.87 ± 0.078
m1 = 0.3546	0.882 ± 0.079

CCC(=O)[O-].C[NH2+]CCO [2-hydroxy-N-methylethanaminium propionate] + O
Settings	electrical conductivity [S/m]
m1 = 0.01487	0.066 ± 0.009
m1 = 0.0155	0.073 ± 0.008
m1 = 0.03159	0.133 ± 0.01
m1 = 0.03183	0.139 ± 0.011
m1 = 0.04881	0.195 ± 0.014
m1 = 0.0489	0.202 ± 0.014
m1 = 0.06492	0.266 ± 0.018
m1 = 0.06527	0.277 ± 0.019
m1 = 0.08046	0.329 ± 0.022
m1 = 0.08214	0.323 ± 0.022
m1 = 0.09748	0.384 ± 0.027
m1 = 0.09889	0.378 ± 0.026
m1 = 0.1136	0.436 ± 0.031
m1 = 0.1159	0.427 ± 0.031
m1 = 0.1305	0.487 ± 0.036
m1 = 0.1324	0.476 ± 0.035
m1 = 0.1464	0.536 ± 0.041
m1 = 0.1495	0.523 ± 0.04
m1 = 0.1622	0.604 ± 0.053
m1 = 0.1651	0.568 ± 0.05
m1 = 0.1776	0.648 ± 0.052
m1 = 0.1814	0.613 ± 0.048
m1 = 0.1935	0.69 ± 0.056
m1 = 0.1966	0.654 ± 0.052
m1 = 0.2081	0.727 ± 0.061
m1 = 0.2121	0.694 ± 0.057
m1 = 0.223	0.764 ± 0.065
m1 = 0.2264	0.702 ± 0.058
m1 = 0.237	0.798 ± 0.069
m1 = 0.2408	0.721 ± 0.06
m1 = 0.25	0.829 ± 0.072
m1 = 0.2542	0.723 ± 0.061
m1 = 0.2632	0.872 ± 0.079
m1 = 0.2677	0.786 ± 0.068
m1 = 0.2756	0.908 ± 0.083
m1 = 0.28	0.814 ± 0.071
m1 = 0.2879	0.933 ± 0.086
m1 = 0.2922	0.834 ± 0.073
m1 = 0.2994	0.957 ± 0.089
m1 = 0.3036	0.86 ± 0.077
m1 = 0.3106	0.98 ± 0.093
m1 = 0.3149	0.906 ± 0.082
m1 = 0.3211	1 ± 0.095
m1 = 0.3255	0.923 ± 0.085
m1 = 0.3317	1.02 ± 0.098
m1 = 0.3357	0.946 ± 0.088
m1 = 0.3415	1.04 ± 0.1
m1 = 0.3454	0.967 ± 0.091
m1 = 0.3511	1.06 ± 0.1
m1 = 0.355	0.987 ± 0.093
m1 = 0.3602	1.08 ± 0.11
m1 = 0.364	1.01 ± 0.096
m1 = 0.3691	1.09 ± 0.11
m1 = 0.3726	1.03 ± 0.099
m1 = 0.3774	1.11 ± 0.11
m1 = 0.3808	1.05 ± 0.1
m1 = 0.3856	1.13 ± 0.12
m1 = 0.3885	1.05 ± 0.1
m1 = 0.3933	1.15 ± 0.12
m1 = 0.396	1.07 ± 0.11
m1 = 0.4009	1.17 ± 0.12
m1 = 0.4032	1.09 ± 0.11
m1 = 0.4079	1.19 ± 0.12
m1 = 0.4098	1.09 ± 0.11
m1 = 0.4148	1.21 ± 0.13
m1 = 0.4165	1.11 ± 0.11
m1 = 0.4227	1.12 ± 0.11
